# Results taken from patent publication US20220168430A1, “THERAPEUTIC METHODS FOR TREATING HEPATITIS B” (priority 2019, published 2022).
# Test system: HBV rcDNA
# Assay: microbe, parasite or virus in culture
# Type: cell-based, HBV genotype D, serotype ayw; HepG 2.2.15
# Conditions: for SYNERGY PLOT (99%) Bonferroni Adj. 55%: TDF 0 μM, Cmpd 1 by row r37-r42: 0.405, 0.135, 0.045, 0.015, 0.005, 0 μM
# Protocol: In vitro triple agent combination studies were conducted using the method of Prichard and Shipman 1990 (Prichard M N, Shipman C, Jr. 1990. Antiviral Res 14:181-205). The HepG 2.2.15 cell line was derived from HepG2 cells with constitutive expression of HBV (genotype D, serotype ayw) (Sells M A, Chen M L, Acs G. 1987. Proc Natl Acad Sci USA 84:1005-9). […] The plates were incubated for 7 days in a humidified incubator at 37° C. and 5% CO2. The level of rcDNA present in the culture supernatants was measured using a Quantigene 2.0 bDNA assay kit (Affymetrix, Santa Clara, Calif.) with HBV specific custom probe set (genotype D ayw) and according to the manufacturer's instructions and read using a luminescence plate reader and the relative luminescence units (RLU) data generated from each well was calculated as % inhibition of the untreated control wells and analyzed using the MacSynergy II program to determine whether the combinations were synergistic, additive or antagonistic using the interpretive guidelines established by Prichard and Shipman (Prichard M N, Shipman C, Jr. 1990. […] Concurrently, in each experiment, the effect of inhibitor combinations on cell viability was assessed in triplicates that were used to determine the ATP content as a measure of cell viability using the Cell-Titer Glo reagent (Promega, Madison, Wis.) as per the manufacturer's instructions.
# [1] = Hepatitis B virus, HepG2.2.15, read-out: ADDITIVE INHIBITION
compound,measurement,setting,value
COCCCOc1cc2c(nc1OC)-c1cc(=O)c(C(=O)O)cn1[C@H](C(C)C)C2 [Compound 2],AVERAGE % INHIBITION,"Cmpd 1 0 μM, Cmpd 2 0.0001 μM, TAF 0 μM",31.76%
same,AVERAGE % INHIBITION,"Cmpd 1 0 μM, Cmpd 2 0.0002 μM, TAF 0 μM",43.68%
same,AVERAGE % INHIBITION,"Cmpd 1 0 μM, Cmpd 2 0.0004 μM, TAF 0 μM",58.53%
same,AVERAGE % INHIBITION,"Cmpd 1 0 μM, Cmpd 2 0.001 μM, TAF 0 μM",71.85%
same,AVERAGE % INHIBITION,"Cmpd 1 0 μM, Cmpd 2 0.002 μM, TAF 0 μM",78.06%
same,AVERAGE % INHIBITION,"Cmpd 1 0 μM, Cmpd 2 0.003 μM, TAF 0 μM",83.72%
same,AVERAGE % INHIBITION,"Cmpd 1 0 μM, Cmpd 2 0.007 μM, TAF 0 μM",85.49%
same,AVERAGE % INHIBITION,"Cmpd 1 0 μM, Cmpd 2 0.027 μM, TAF 0 μM",87.17%
same,AVERAGE % INHIBITION,"Cmpd 1 0 μM, Cmpd 2 […], TAF 0 μM",89.05%
same,SYNERGY PLOT (99%) Bonferroni Adj. 55%,Cmpd 2 0.00002 μM,0
same,SYNERGY PLOT (99%) Bonferroni Adj. 55%,Cmpd 2 0.00004 μM,0
same,SYNERGY PLOT (99%) Bonferroni Adj. 55%,Cmpd 2 0.00008 μM,0
same,SYNERGY PLOT (99%) Bonferroni Adj. 55%,Cmpd 2 0.00016 μM,0
same,SYNERGY PLOT (99%) Bonferroni Adj. 55%,Cmpd 2 0.0003 μM,0
same,SYNERGY PLOT (99%) Bonferroni Adj. 55%,Cmpd 2 0.0006 μM,0
same,SYNERGY PLOT (99%) Bonferroni Adj. 55%,Cmpd 2 0.001 μM,0
same,SYNERGY PLOT (99%) Bonferroni Adj. 55%,Cmpd 2 0.003 μM,0
same,SYNERGY PLOT (99%) Bonferroni Adj. 55%,Cmpd 2 0.005 μM,0
same,AVERAGE % INHIBITION,"ETV @ 0 μM, Cmpd 2 0.0001 μM alone",39.44%
same,AVERAGE % INHIBITION,"ETV @ 0 μM, Cmpd 2 0.0002 μM alone",47.6%
same,AVERAGE % INHIBITION,"ETV @ 0 μM, Cmpd 2 0.0004 μM alone",67.99%
same,AVERAGE % INHIBITION,"ETV @ 0 μM, Cmpd 2 0.001 μM alone",74.24%
same,AVERAGE % INHIBITION,"ETV @ 0 μM, Cmpd 2 0.002 μM alone",77.97%
same,AVERAGE % INHIBITION,"ETV @ 0 μM, Cmpd 2 0.003 μM alone",83.78%
same,AVERAGE % INHIBITION,"ETV @ 0 μM, Cmpd 2 0.007 μM alone",86.78%
same,AVERAGE % INHIBITION,"ETV @ 0 μM, Cmpd 2 0.027 μM alone",88.04%
same,AVERAGE % INHIBITION,"ETV @ 0 μM, Cmpd 2 […] alone",88.65%
same,inhibition at 20 pM,[1],7.15%
same,inhibition at 40 pM,[1],9.56%
same,inhibition at 0.00016 µM,[1],36.2%
same,inhibition at 0.0003 µM,[1],40.9%
same,inhibition at 0.0006 µM,[1],64.5%
same,inhibition at 0.001 µM,[1],69.8%
same,inhibition at 0.003 µM,[1],74.5%
same,inhibition at 0.005 µM,[1],77.5%
